Results taken from patent US20210046042A1, “SUBSTANCES AND COMPOSITIONS FOR THE USE IN THE TREATMENT OF ENDOMETRIOSIS AND ENDOMETRIOSIS ASSOCIATED SYMPTOMS” (SISTEMI SALUTE S.R.L., priority 2017, published 2021).
“Also recorded” adds a separate entry of the source.

Tested on: patients affected by endometriosis, IV stage (deep endometriosis, adenomyosis and ovarian endometriosis)
Experiment: Clinical study on patients affected by endometriosis treated with Luteolin
Format: in vivo, human
Description: Clinical Study on Patients Affected by Endometriosis Treated with […]
A composition in powder for oral administration containing Luteolin (62.5 mg of extract of shells of peanuts standardized to 80% Luteolin) equal to 50 mg was prepared.
18 patients affected by endometriosis, IV stage, were identified, all of them with deep endometriosis, adenomyosis and ovarian endometriosis (endometriosis ovarian cysts larger than 3 cm), the disease diagnosis was placed with diagnostic protocol including vaginal and rectal explorations for the diagnosis of deep endometriosis, Nuclear magnetic resonance of pelvis with examination of resonance parameters for the diagnosis of adenomyosis, thickness of the neck-body junction area (JZ) of the uterus larger than 12 mm, exclusion criterion for adenomyosis thickness smaller than 8 mm, examination of the myometrium structure, examination of the myometrium thicknesses both of front and rear wall, hematic examinations comprising the marker Ca 125, the dosage of 17B-estradiol and of testosterone.
The first group constituted by 18 patients ingested 2 capsules per day, every twelve hours, for 45 days of the composition containing Luteolin 50 mg.
For the disease evaluation:
The dosage of 17B-estradiol
The dosage of testosterone
The Rectal examination for deep endometriosis
The rectal examination for deep endometriosis
The nuclear magnetic resonance of pelvis with contrast medium (gadolinium) were performed.
INCLUSION CRITERIA for experimentation
Not ingestion of pain-relieving drugs
Absence of anti-inflammatory drugs
Positive Vaginal examination
Positive rectal examination

[1] = 21st day of treatment, basal JZ>12 mm
[2] = study group, 21st day of treatment, basal VAS>=7

In the case of O=c1cc(-c2ccc(O)c(O)c2)oc2cc(O)cc(O)c12 [Luteolin, 2-(3,4-dihydroxyphenyl)-,5,7dihydroxy-4-chromenone], the “Serum dosage of testosterone average value of the sample” value (21st day of treatment, basal 0.13 ng/ml) is reported as 0.15 ng/mL, the “RMN Adenomyosis JZ between 12 and 8 mm” value [1] is reported as 5% and the “RMN Adenomyosis JZ<8 mm” value [1] is reported as 95%. For the same compound, the “adenomyosis JZ” value (Luteolin 50 mg oral twice a day, 18 patients) was under 12 mm, the “disease parameters (deep endometriosis, adenomyosis, ovarian endometriosis)” value (Luteolin 50 mg oral twice a day, 18 patients, IV stage) was “quick reduction; also recorded: quick decrease” and the “average maximum diameter of the ovarian cysts” value (Luteolin 50 mg oral twice a day, 18 patients, from cm 5.34) was 2.14 cm. For the same compound, the “side effects / voluntary suspensions of the treatment” value (Luteolin 50 mg oral twice a day, 45 days) was “No side effects”, the “antigen marker Ca 125 (in words)” value (Luteolin 50 mg twice a day, all treated patients) was “reduced; also recorded: negativization” and the “RMN ovarian cysts weighted average (maximum diameter)” value (after 21 days of therapy, basal cm 5.34) was 2.14. The “regression of the symptoms” value (after five days from the beginning of administration, constant for 45 days) was “almost disappeared”, the “17 Beta-Estradiol dosage average value of the sample” value (serum, 21st day of period, 21st day of treatment, basal 199 pg/ml) was 196 pg/mL and the “Ca 125 dosage: average value” (serum, 21st day of treatment, basal 72.6 UI/ml) was 32.1 UI/ml. The Headache (study group, 21st day of treatment, Luteolin 50 mg oral twice a day, basal 21%) was 11%, the Cystitis (study group, 21st day of treatment, Luteolin 50 mg oral twice a day, basal 23%) was 5% and the “Chronic pelvic pain VAS<3” value [2] was 100. The “Dysmenorrhea VAS<3” value [2] was 100 and the “Dyspareunia VAS<=3” value [2] was 100.
